In patent US20130303509A1, “NAMPT INHIBITORS” (AbbVie Inc., priority 2012, published 2013):

The compounds below were run on PC3 cells (assay: NAMPT Cell Proliferation Assay). Conditions: Homo sapiens, PC-3, 120 h, 5 days incubation, cell viability by Cell Titer Glo.
Format: cell-based
Procedure: NAMPT Cell Proliferation Assay
PC3 cells were seeded in 96-well black plates (Corning #3904) at 500 cells)Owell in 90 µl of RPMI media containing 10% heat-inactivated FBS and incubated overnight at 37° C. and 5% CO2 to allow cells to attach to wells. The following day, test compounds were serially diluted in neat DMSO to 1000× final concentrations prior to dilution with RPMI media to 10× and 1% DMSO. […] of the 10× compounds were then transferred to wells containing cells to produce a dose response of 10-fold dilutions from […] to 1×10^−[…]. Cells were incubated for 5 days at 37° C. and 5% CO2, then cell viability was measured using Cell Titer Glo reagent (Promega #G7571). Percent inhibition values were calculated and fitted to a sigmoidal dose response curves using Assay Explorer software to determine IC50s.

| SMILES | IC50 [nM] |
| --- | --- |
| O=C(Nc1ccc(C2CCN(C(=O)c3ccccn3)CC2)cc1)C1CN(c2ccnnc2)C1 [Example 543, 1-(pyridazin-4-yl)-N-{4-[1-(pyridin-2-ylcarbonyl)piperidin-4-yl]phenyl}azetidine-3-carboxamide] | 7.7 |
| CC(C)Cn1cc(-c2ccc(C(=O)N[C@H]3CCN(c4cccnn4)C3)s2)cn1 [Example 606, 5-[1-(2-methylpropyl)-1H-pyrazol-4-yl]-N-[(3S)-1-(pyridazin-3-yl)pyrrolidin-3-yl]thiophene-2-carboxamide] | 86.7 |
| O=C(Nc1ccc(OC2CN(C(=O)CC(F)(F)F)C2)cc1)C1CN(c2ccnnc2)C1 [Example 258, 1-(pyridazin-4-yl)-N-(4-{[1-(3,3,3-trifluoropropanoyl)azetidin-3-yl]oxy}phenyl)azetidine-3-carboxamide] | 309 |
| O=C(Nc1ccc(C2CCN(C(=O)CC3CCCC3)CC2)cc1)C1CN(c2ccnnc2)C1 [Example 144, N-{4-[1-(cyclopentylacetyl)piperidin-4-yl]phenyl}-1-(pyridazin-4-yl)azetidine-3-carboxamide] | 18.4 |
| O=C(Nc1ccc(C2CCN(C(=O)c3ccc(F)cc3F)CC2)cc1)C1CN(c2ccnnc2)C1 [Example 547, N-{4-[1-(2,4-difluorobenzoyl)piperidin-4-yl]phenyl}-1-(pyridazin-4-yl)azetidine-3-carboxamide] | 3.02 |
| O=C(Nc1ccc(C2CCN(C(=O)Cc3cc(F)cc(F)c3)CC2)cc1)C1CN(c2ccnnc2)C1 [Example 532, N-(4-{1-[(3,5-difluorophenyl)acetyl]piperidin-4-yl}phenyl)-1-(pyridazin-4-yl)azetidine-3-carboxamide] | 7.24 |
| CN1CCN(CC(=O)N2CCC(c3ccc(NC(=O)C4CN(c5cccnc5)C4)cc3)CC2)CC1 [Example 113, N-(4-{1-[(4-methylpiperazin-1-yl)acetyl]piperidin-4-yl}phenyl)-1-(pyridin-3-yl)azetidine-3-carboxamide] | 6.34 |
| O=C(Nc1ccc(C2CCN(C(=O)c3ccccc3Cl)CC2)cc1)[C@H]1CCN(c2cccnn2)C1 [Example 669, (3S)-N-{4-[1-(2-chlorobenzoyl)piperidin-4-yl]phenyl}-1-(pyridazin-3-yl)pyrrolidine-3-carboxamide] | 1.88 |
| CC(C)C(=O)N1CCC(c2ccc(NC(=O)C3CN(c4ccc(F)nn4)C3)cc2)CC1 [Example 821, 1-(6-fluoropyridazin-3-yl)-N-{4-[1-(2-methylpropanoyl)piperidin-4-yl]phenyl}azetidine-3-carboxamide] | 165 |
| O=C(Nc1ccc(O[C@@H]2CCN(C(=O)c3ccc(OC(F)(F)F)cc3)C2)cc1)C1CN(c2ccnnc2)C1 [Example 477, 1-(pyridazin-4-yl)-N-[4-({(3R)-1-[4-(trifluoromethoxy)benzoyl]pyrrolidin-3-yl}oxy)phenyl]azetidine-3-carboxamide] | 235 |
| O=C(Nc1ccc(C2CCN(C(=O)C(c3ccccc3)c3ccccc3)CC2)cc1)[C@H]1CCN(c2cccnn2)C1 [Example 698, (3S)-N-{4-[1-(diphenylacetyl)piperidin-4-yl]phenyl}-1-(pyridazin-3-yl)pyrrolidine-3-carboxamide] | 67.9 |

More lines, now with the values ahead:

| IC50 [nM] | SMILES |
| --- | --- |
| 1.12 | O=C(Nc1ccc(C2CCN(C(=O)CCc3ccccc3)CC2)cc1)C1CN(c2cccnn2)C1 [Example 422, N-{4-[1-(3-phenylpropanoyl)piperidin-4-yl]phenyl}-1-(pyridazin-3-yl)azetidine-3-carboxamide] |
| 7.7 | CCC(C)C(=O)N1CCC(c2ccc(NC(=O)[C@H]3CCN(c4cccnn4)C3)cc2)CC1 (stereo partly drawn) [Example 706, (3S)-N-{4-[1-(2-methylbutanoyl)piperidin-4-yl]phenyl}-1-(pyridazin-3-yl)pyrrolidine-3-carboxamide] |
| 8.79 | O=C(Nc1ccc(C2CCN(C(=O)Cc3ccc(Cl)cc3)CC2)cc1)C1CN(c2cccnn2)C1 [Example 370, N-(4-{1-[(4-chlorophenyl)acetyl]piperidin-4-yl}phenyl)-1-(pyridazin-3-yl)azetidine-3-carboxamide] |
| 69.2 | O=C(Nc1ccc(OC2CCN(C(=O)c3cccc(C(F)(F)F)c3)CC2)cc1)C1CN(c2ccnnc2)C1 [Example 285, 1-(pyridazin-4-yl)-N-[4-({1-[3-(trifluoromethyl)benzoyl]piperidin-4-yl}oxy)phenyl]azetidine-3-carboxamide] |
| 2.15 | O=C(Nc1ccc(O[C@@H]2CCN(C(=O)c3ccccc3F)C2)cc1)[C@H]1CCN(c2cccnn2)C1 [Example 775, (3S)-N-(4-{[(3R)-1-(2-fluorobenzoyl)pyrrolidin-3-yl]oxy}phenyl)-1-(pyridazin-3-yl)pyrrolidine-3-carboxamide] |
| 79.2 | O=C(Nc1ccc(S(=O)(=O)C2CCN(C(=O)c3cccc(Cl)c3)CC2)cc1)C1CN(c2cccnn2)C1 [Example 564, N-(4-{[1-(3-chlorobenzoyl)piperidin-4-yl]sulfonyl}phenyl)-1-(pyridazin-3-yl)azetidine-3-carboxamide] |
| 66.9 | O=C(Nc1ccc(O[C@@H]2CCN(C(=O)CCC(F)(F)F)C2)cc1)[C@H]1CCN(c2cccnn2)C1 [Example 782, (3S)-1-(pyridazin-3-yl)-N-(4-{[(3R)-1-(4,4,4-trifluorobutanoyl)pyrrolidin-3-yl]oxy}phenyl)pyrrolidine-3-carboxamide] |
| 88.7 | Cc1ccccc1C(=O)N1CCC(S(=O)(=O)c2ccc(NC(=O)C3CN(c4cccnn4)C3)cc2)CC1 [Example 578, N-(4-{[1-(2-methylbenzoyl)piperidin-4-yl]sulfonyl}phenyl)-1-(pyridazin-3-yl)azetidine-3-carboxamide] |
| 7.08 | CC(C)CCC(=O)N1CCC(c2ccc(NC(=O)C3CN(c4cccnn4)C3)cc2)CC1 [Example 324, N-{4-[1-(4-methylpentanoyl)piperidin-4-yl]phenyl}-1-(pyridazin-3-yl)azetidine-3-carboxamide] |
| 7.42 | O=C(Nc1ccc(C2CCN(C(=O)c3cccc4ccccc34)CC2)cc1)C1CN(c2cccnn2)C1 [Example 406, N-{4-[1-(naphthalen-1-ylcarbonyl)piperidin-4-yl]phenyl}-1-(pyridazin-3-yl)azetidine-3-carboxamide] |
| 0.78 | O=C(Nc1ccc(O[C@@H]2CCN(C(=O)C(F)(F)c3ccccc3)C2)cc1)C1CN(c2cccnn2)C1 [Example 522, N-[4-({(3R)-1-[difluoro(phenyl)acetyl]pyrrolidin-3-yl}oxy)phenyl]-1-(pyridazin-3-yl)azetidine-3-carboxamide] |
| 7.73 | CC(C)(C)C(=O)N1CCC(Oc2ccc(NC(=O)C3CN(c4cccnn4)C3)cc2)CC1 [Example 241, N-(4-{[1-(2,2-dimethylpropanoyl)piperidin-4-yl]oxy}phenyl)-1-(pyridazin-3-yl)azetidine-3-carboxamide] |
| 71 | CCC(C)(C)C(=O)N1CCC(c2ccc(NC(=O)C3CN(c4cccnc4C)C3)cc2)CC1 [Example 193, N-{4-[1-(2,2-dimethylbutanoyl)piperidin-4-yl]phenyl}-1-(2-methylpyridin-3-yl)azetidine-3-carboxamide] |
| 59.8 | CC(C)c1ccc(C(=O)N2CCC(S(=O)(=O)c3ccc(NC(=O)C4CN(c5cccnn5)C4)cc3)CC2)cc1 [Example 572, N-[4-({1-[4-(propan-2-yl)benzoyl]piperidin-4-yl}sulfonyl)phenyl]-1-(pyridazin-3-yl)azetidine-3-carboxamide] |
